Data on one molecule can be found in PMC9916163, “Evaluation of the Cytotoxic Effect of Pd2Spm against Prostate Cancer through Vibrational Microspectroscopies” (International Journal of Molecular Sciences, 2023).

Read-outs that look alike come from different tables or passages of the source.

One assay has as its system LNCaP cell line. As to the kind of experiment: MTT cytotoxicity assay, LNCaP cells. The assay is classed as cell-based, human. The following applies: prostate cancer cells, read-out: Half maximal inhibitory concentration (IC50) LNCaP. The protocol:
(§1) The human prostate cancer (PC-3 and LNCaP) and non-tumorigenic (PNT-2) cell lines were obtained from the ECCAC Culture Collections and supplied by Sigma-Aldrich Chemical S.A. (Sintra, Portugal). They were cultured as monolayers, at 37 °C, in a humidified atmosphere of 5% CO2. The cultures were maintained in RPMI-1640 culture medium, supplemented with 10% (v/v) heat-inactivated FBS and 1% (v/v) penicillin/streptomycin. The cells were subcultured at 80% confluence, using 0.05% trypsin-EDTA (1×) in PBS.
(§2) For all cell lines (PC-3, LNCaP and PNT-2), cell cultures were established in 96-well plates (100 µL/well) at a density of 3 × 10^4 cells/cm^2, and were allowed to attach for 24 h. Triplicates were treated for different incubation periods (three independent experiments) with a range of concentrations between 2 and 32 µM of the tested compounds (cisplatin and Pd2Spm). According to the population doubling time for all cell lines (ca. 24 h), 24, 48, and 72 h timepoints after drug administration were chosen.
(§3) In order to evaluate cell viability, the MTT assay was used. Briefly, at each time-point, the growth media was removed, cells were washed with PBS and MTT solution (2.5 mg/mL) was added to each well (100 µL). After 3 h of incubation at 37 °C, the formazan crystals were solubilized in DMSO (100 µL), and the absorbance was measured at 570 nm.
(§4) Cells viability data results are expressed as mean ± standard error of the mean (SEM) and compared with non-treated controls. Statistical analysis was carried out through one-way ANOVA followed by Tukey’s multiple comparison test. A p-value < 0.05 was considered statistically significant.
For orientation: Formazan colour is commonly taken as a measure of viable cells.

The subject of assay [1] is PC-3. Set-up: method as in PMID 24366574. The following applies: 48 h, MTT method; read-out: Value previously reported (IC50) PC-3; cited from earlier work.
For a further assay, the system named is LNCaP. Set-up: method as in PMID 17541592. To be noted: 48 h, SRB method; read-out: Value previously reported (IC50) LNCaP; cited from earlier work.
For another assay, the system named is PNT-2 cell line. As to the kind of experiment: MTT cytotoxicity assay, PNT-2 cells. The class given is cell-based, human. The following applies: prostate non-cancer cells, read-out: Half maximal inhibitory concentration (IC50) PNT-2. Here is the method:
as §1, §2
In order to evaluate cell viability, the MTT assay was used. […] After 3 h of incubation at 37 °C, the formazan crystals were solubilized in DMSO (100 µL), and the absorbance was measured at 570 nm.
Cells viability data results are expressed as mean ± standard error of the mean (SEM) and compared with non-treated controls. […]

The test system of assay [2] is PC-3. Set-up: method as in PMID 17541592. The following applies: 72 h, SRB method; read-out: Value previously reported (IC50) PC-3; cited from earlier work.
For the next assay, the system named is PNT-2. Set-up: method as in PMID 34277574. The following applies: 96 h, MTT method; read-out: Value previously reported (IC50) PNT-2; cited from earlier work.
The subject of another assay is PC-3 cell line. Briefly: MTT cytotoxicity assay, PC-3 cells. The class given is cell-based, human. To be noted: prostate cancer cells, read-out: Half maximal inhibitory concentration (IC50) PC-3. Here is the method: as §1, §2, §3, §4

As for `N.N.[Cl][Pt][Cl]` [Cisplatin, cis-dichlorodiammine platinum(II)], the IC50 in the assay with LNCaP cell line (24 h incubation) was 13.6 µM; with LNCaP cell line (48 h incubation), 7.3 µM; in the assay on LNCaP cell line (72 h incubation), 2.7 µM; in the assay on PC-3 [1] it was 10.6 µM; in the assay on LNCaP it was 3.7 µM; with PNT-2 cell line (48 h incubation), 5.2 µM. Moreover, the IC50 in the assay on PNT-2 cell line (72 h incubation) is 2.4 µM; in the assay on PC-3 [2] it was 1 µM; with PNT-2, 8.5 µM; in the assay on PC-3 cell line (24 h incubation) it was 25.6 µM; in the assay on PC-3 cell line (48 h incubation) it was 3 µM; with PC-3 cell line (72 h incubation) it was 0.7 µM.
